Results reported in the supplement of paper PMC8837787.

tested on: Saccharomyces cerevisiae ABC16-Green Monster; assay: growth inhibition at single dose (up to 150 µM), below the 70% cut-off for dose-response; higher = more potent; conditions: 18 h; 30 °C; YPD
Summary of the method: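 Values are percent growth inhibition of drug-sensitive S. cerevisiae ABC16-Green Monster cells. Cells grown overnight in YPD at 30 °C were diluted to log phase (OD600 0.1–0.2), and each library compound was added at a single dose of 150 µM to 200 µl culture per well in 96-well plates, in biological duplicates, beside untreated cultures. OD600 was read at 0 h and after 18 h at 30 °C, and compounds under 70% in both replicates were not taken to dose-response.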

Compound	growth inhibition at single dose
CC(C)n1ncc2c(C(=O)NCC(c3cccs3)N3CCOCC3)cc(-c3ccccc3)nc21 (stereo not drawn)	< 70%
Cc1[nH]c(-c2ccccn2)nc(=O)c1CC(=O)NC1CCCCCCC1	< 70%
CSc1nc2nc(C)c(CCC(=O)N(CC(F)(F)F)C(C)C3CC3)c(C)n2n1 (stereo not drawn)	< 70%
O=C(Cc1ccccc1)NC(c1ccc(Cl)cc1)c1c(O)ccc2ccccc12 (stereo not drawn)	< 70%
Cc1nc(-c2cccc(NCc3ccccc3)c2)[nH]c1C	< 70%
CN(C)CCCNCc1ccc(-c2ccc(F)c(Cl)c2)o1	< 70%
Cc1ccc(/C(C#N)=C/c2ccc(N(C)C)cc2)cc1	< 70%
OC(CNC1CCCC1)Cn1c2ccccc2c2ccccc21 (stereo not drawn)	< 70%
O=c1nc(-c2ccccn2)[nH]c2scc(-c3ccccc3)c12	< 70%
Nc1ncnc2[nH]nc(Cc3cccc4ccccc34)c12	< 70%
CC(NC(=O)c1cccc(Nc2ncccn2)c1)c1cccc(C(F)(F)F)c1 (stereo not drawn)	< 70%
Cc1ccccc1CN1CCC(O)(c2ccc(Cl)c(C(F)(F)F)c2)CC1	< 70%
O=C(CCc1ccco1)NC1CCN(CC2(c3ccc(Cl)cc3)CCC2)CC1	< 70%
Cc1ccc(NC(=O)c2[nH]nc3c2CCCC3)cc1Cl	< 70%
COc1cccc(-c2csc(-c3nnc4n3-c3ccccc3SC4)n2)c1	< 70%
O=C(NCc1ccoc1)N1CCN(Cc2ccc3c(c2)OCO3)CC1	< 70%
CC[C@H](CO)NCCN[C@H](CC)CO	< 70%
COc1ccc(-c2cnc3cnc(-c4cccc(OC(C)C)c4)cn23)cc1	< 70%
Cc1ccc(S(=O)(=O)/N=C2\C=C3N(CCO)CCOC3(O)c3ccccc32)c(C)c1 (stereo not drawn)	< 70%
CCOc1ccc(CN(C)CC(=O)NCCc2ccc(S(N)(=O)=O)cc2)cc1	< 70%
O=c1nc(CCc2ccc3c(c2)OCCO3)[nH]c2ccccc12	< 70%
Clc1cccc(CO[C@H]2CCc3ccccc3[C@@H]2n2ccnn2)c1	< 70%
COC(=O)CCSc1c2ccc(Cl)cc2nc2ccc(OC)cc12	< 70%
CNc1snc(C)c1C(=O)OCCOc1ccccc1C(C)=O	< 70%

Compound	growth inhibition at single dose
CC1CN(C(=O)c2ccc(S(=O)(=O)Nc3ccccc3F)cc2)CC(C)O1 (stereo not drawn)	< 70%
O=C(c1cnn(C(=O)c2nn(-c3ccc(Cl)cc3)cc2O)c1)c1ccccc1O	< 70%
Nc1ncnc2c1c(-c1cnc3ccccc3c1)nn2CC1CCNCC1	< 70%
Cc1cc(=O)nc(N/N=C/c2c(C)nn(-c3ccccc3Cl)c2Cl)[nH]1	< 70%
CCC(C)c1ccc(S(=O)(=O)N(Cc2ccc(C(=O)NC3CC3)cc2)C2CC2)cc1 (stereo not drawn)	< 70%
CCOC(=O)c1ccc2nc(-c3ccccc3)cc(O)c2c1	< 70%
Nc1ccc(-c2nc3cc(Cc4ccc5[nH]c(-c6ccc(N)cc6)nc5c4)ccc3[nH]2)cc1	< 70%
N=c1n(CCN2CCCCC2)c2ccccc2n1CC(=O)c1ccc(Cl)c(Cl)c1	< 70%
COCC(C)NC(=O)CSc1ncnc2sc(-c3ccccc3)cc12 (stereo not drawn)	< 70%
CC1(c2ccccc2)Nc2ccccc2-c2nc3ccccc3n21 (stereo not drawn)	< 70%
COc1ccc(CCn2c(=N)c(C(=O)NCc3cccnc3)cc3c(=O)n4cccc(C)c4nc32)cc1	< 70%
CCOc1ccc(-c2nc(CC(=O)NCc3ccnc(OC)c3)cs2)cc1	< 70%
Cc1[nH]c2ccc(F)cc2c(=O)c1I	< 70%
Cc1nn(-c2ccc(F)cc2)c(Cl)c1/C=C1\C(=O)Nc2ccccc21	< 70%
CCOc1c(Cl)cc(CNC(C)C(O)c2ccccc2)cc1OC (stereo not drawn)	< 70%
Nc1nc(Nc2cc(Cl)cc(Cl)c2)c2[nH]cnc2n1	< 70%
CCOc1ccc(N2C(N)=NC(N)=NC2(C)C)cc1	< 70%
CCN(CC)CCn1c(=N)n(CC(O)c2ccc(Cl)c(Cl)c2)c2ccccc21 (stereo not drawn)	< 70%
Cc1cccc(N2C(=O)C3C(C2=O)C2(c4ccccc4)C(=O)C3(c3ccccc3)C(c3ccc4c(c3)OCO4)=C2c2ccc3c(c2)OCO3)c1 (stereo not drawn)	< 70%
COc1ccc(CC(=O)N2CCN(C)c3nc4ccccc4nc32)cc1F	< 70%
O=C(NCC1Cc2cccc(-c3ccncc3)c2O1)c1csc2c1CCCC2 (stereo not drawn)	< 70%
Cc1ccc(N2C(=O)C3C(C2=O)C2(c4ccccc4)C(=O)C3(c3ccccc3)C(c3ccccc3)=C2c2ccccc2)cc1 (stereo not drawn)	< 70%
CC1CC(NC(=O)c2cc3c(=O)n4ccccc4nc3n2C)CC(C)(C)C1 (stereo not drawn)	< 70%
Cc1cc(C2=NNC(=NC3CC3)SC2)c(C)n1-c1ccccn1	< 70%

Compound	growth inhibition at single dose
COc1cc(C(=O)ON=C(N)Cc2cccc3ccccc23)cc(OC)c1OC	< 70%
COc1ccc(C2N(C)c3ccccc3N2C)cc1	< 70%
NCC(=O)N1CCn2c(nc(-c3ccccc3)c2Nc2ccc3c(c2)OCO3)C1	< 70%
O=C(C1CCCCC1)N1CC(=O)N2CCc3ccccc3C2C1 (stereo not drawn)	< 70%
CCOC(=O)c1noc(N)c1-c1ccccc1	< 70%
CCOC(=O)c1ccc(N2CCN(C(C)c3nc(C(C)C)no3)CC2)nc1 (stereo not drawn)	< 70%
CN(c1ccccc1)S(=O)(=O)c1ccc(NC(=O)c2cccs2)cc1	< 70%
CC(=O)Oc1ccccc1C(=O)Nc1ncc([N+](=O)[O-])s1	< 70%
C/N=c1\scc(-c2ccco2)n1/N=C/c1sccc1C	< 70%
COC(=O)c1ccc(C2C3=C(O)CC(c4ccc(F)cc4)CC3=Nc3ccccc3N2C(=O)c2ccccc2)cc1 (stereo not drawn)	< 70%
COc1cccc(NC(=O)c2c(NC(=O)c3cccnc3)sc3c2CCC3)c1	< 70%
COCCNC(=O)c1nn(CCC(C)C)c2c1CN(C(=O)c1cc(C)n[nH]1)CC2	< 70%
O=C(Nc1ccc(N2CCCCCC2)cc1)c1ccc[nH]1	< 70%
CCn1c(O)c(C2NCCc3c2[nH]c2ccc(OC)cc32)c(=O)[nH]c1=O (stereo not drawn)	< 70%
c1ccc(NCCNc2nc(-c3ccncc3)nc3ccccc23)nc1	< 70%
OC1CCC(Nc2nn3cc(-c4ccccc4)nc3s2)CC1 (stereo not drawn)	< 70%
COc1ccc(N(CCc2cccc(C)n2)C(C)=O)cc1	< 70%
OC1CCN(c2nn3cc(-c4ccccc4)nc3s2)CC1	< 70%
CCOc1ccc(S(=O)(=O)CC2=NCCc3cc(OC)c(OC)cc32)cc1	< 70%
Cc1c(C)n(CCN(C)C)c2ncn3nc(-c4ccccc4O)nc3c12	< 70%
COc1ccc(S(=O)(=O)N2CCSc3cc(Cl)ccc32)cc1	< 70%
Cc1nccnc1-c1ccnn1C(=O)Nc1cc(Cl)cc(Cl)c1	< 70%
CN1CCN(c2nccc3[nH]c(-c4cccc(F)c4)cc23)CC1	< 70%
CC(C)c1ccc2cc(C(=O)Nc3ccc4c(c3)NC(=O)CO4)[nH]c2c1	< 70%

Compound	growth inhibition at single dose
Cc1cc(C(=O)Nc2ccc(Cl)cc2)c(C)n1-c1ccccc1	< 70%
COc1ccc2c(c1)CCCC21NC(=O)N(Cc2nc3ccccc3s2)C1=O (stereo not drawn)	< 70%
O=C(Nc1nc2c(s1)CCCC2)c1cc(F)c(F)c(F)c1F	< 70%
COc1ccc(C(=O)C(CCC(CNC(C)(C)C)C(=O)c2ccc(OC)cc2)CNC(C)(C)C)cc1 (stereo not drawn)	< 70%
Cc1ccc(C)c(S(=O)(=O)N2CCN(C(=O)c3[nH]nc4ccccc34)CC2)c1	< 70%
COc1ccc(Br)cc1C1Nc2ccc3ccccc3c2C2=C1C(=O)CC(c1ccccc1)C2 (stereo not drawn)	< 70%
Nc1nccnc1C(=O)Nc1nc2cc3c(cc2s1)OCCO3	< 70%
Cc1cc2nnc(-c3ccc(C(F)(F)F)cc3)n2[nH]1	< 70%
COc1ccc(C2Sc3ccccc3N=C3C2=C(O)c2ccccc23)cc1 (stereo not drawn)	< 70%
O=C(Nc1ccc2nc(-c3ccccc3Cl)[nH]c2c1)c1ccc(=O)[nH]n1	< 70%
CCCn1nnc(NC(=O)COc2ccc(C3CCCCC3)cc2)n1	< 70%
CCc1ccc(/C=C/c2ccc3cccc(O)c3n2)cc1	< 70%
Cc1nccc(-c2cccc(N/N=C(\C#N)S(=O)(=O)c3ccccn3)c2)n1	< 70%
O=C(NCc1cc(Cl)cc(Cl)c1)c1c(C(F)(F)F)nc2ccccn12	< 70%
Nc1nnc(SCc2c(F)cccc2Cl)[nH]1	< 70%
CC(C)(C)C(=O)Nc1ccc(-c2nc3ncccc3o2)c(Cl)c1	< 70%
COc1ccc(/C=C2\N=C(SCC(=O)O)N(Cc3ccccc3)C2=O)cc1	< 70%
COc1cc(NS(=O)(=O)c2ccc(C)cc2)c(OC)cc1Cl	< 70%
CC(Oc1ccc(Cl)cc1)C(=O)Nc1sccc1C(N)=O (stereo not drawn)	< 70%
Cc1nc2ccccc2c(O)c1CC=C(Cl)Cl	< 70%
CCS(=O)(=O)c1ncc(Cl)c(C(=O)Nc2ccccc2C(F)(F)F)n1	< 70%
